Data from patent US20070087974A1, “TREATMENT OR PREVENTION OF RESPIRATORY VIRAL INFECTIONS WITH IMMUNOMODULATOR COMPOUNDS” (SCICLONE PHARMACEUTICALS, INC., priority 2004, published 2007).
Read-outs that look alike come from different tables or passages of the source. Marks after values point to notes of the source that are not given here.

Tested on: Influenza virus A—A/Achi/1/68 (H3N2)
Type: in vivo, outbred CFW female mice
[1] = 10.0 mg/kg per os for 5 days, […]

With `N[C@H](CCC(=O)N[C@@H](Cc1c[nH]c2ccccc12)C(=O)O)C(=O)O` [SCV-07, γ-D-glutamyl-L-tryptophan] the “# of mice survived” value (0.1 mg/kg per os for 5 days, […]) was 0, the “# of mice survived” value (1.0 mg/kg per os for 5 days, […]) was 0 and the “Median survival (days)” value (1.0 mg/kg per os for 5 days, […], p = 0.025 compared to PBS-treated group by Log Rank test) was 9.0* days. For the same molecule, the “# of mice survived” value [1] was 0, the “Median survival” value [1] was 6.0 days and the “Median survival” value (mouse, in vivo) was 7.0 days.
